In article PMC10647704 (Molecules, 2023):
Values after ≈ are worked out from the molar mass of the structure shown. Like-named read-outs stand apart in the source and are kept apart here.

Legend:
[1] = biological target: yeast plasma membrane H+-ATPase (Pma1p) (Candida albicans, UniProt P28877); experiment: Medium acidification assay in C. albicans S1; assay type: cell-based; conditions: change in pH at 30 min, highest test concentration 30 µM, mean ± SEM of three experiments
[2] = tested on: C. albicans S1 (FLU-sensitive); experiment: Turbidity assay (MIC and IC50) in C. albicans S1; assay type: cell-based
[3] = tested on: C. albicans S1 (FLU-sensitive); experiment: Colorimetric resazurin assay (MIC) in C. albicans S1; assay type: cell-based; conditions: read-out: MIC, colorimetric assay
[4] = tested on: human epidermoid carcinoma cells KB-3-1; experiment: MTT cell viability assay in KB-3-1 cells; assay type: cell-based; conditions: for IC50: 24 h incubation, 48 h of treatment; for fungal selectivity (ratio of the IC50 in KB-3-1 cells to the IC50 in S1 cells): KB-3-1 vs C. albicans S1
Description: MTT assays were then performed to assess the effect of the test compounds on human epidermoid carcinoma cells KB-3-1 (24 h incubation).
The cell viability assay was performed in human epidermoid carcinoma cells KB-3-1. Initially, 5 × 10^3 cells were seeded into each well in a 96-well plate. […] After 48 h of treatment, 20 µL of MTT solution (5 mg/mL) was added to each well and allowed to incubate for 3.5 h. Subsequently, DMSO was added to each well upon removal of the MTT solution. The Abs570nm values were then measured using an accuSkanTM GO UV/VIS Microplate Spectrophotometer (Fisher Sci., Fair Lawn, NJ, USA).

[5] = tested on: breast cancer cell line MCF-7; set-up: method as in PMID 31683558; conditions: breast cancer cell line MCF-7 ref 23; cited from earlier work
C. albicans S1 = experiment: Mouse model of vulvovaginal candidiasis (VVC); conditions: for expression of MPO in vaginal tissue (IHC): day 6, compared to 6th day infected and vehicle groups; for PMN counts of vaginal tissues: day 6, compared to control and vehicle group; for histopathology of vaginal tissue (H&E): day 6, infected and treated mice; for gross markers of the health of the mice: intravaginal suspension, over the course of the study; for Log CFU/100 μL / Remaining C. albicans S1 Compared to Control (100%): vaginal lavage day 6, intravaginal once daily days 3-5, CHB 12.5 mg/kg, MICO 2% cream
[6] = tested on: reconstructed human epidermis; experiment: In vitro skin irritation test on reconstructed human epidermal model (EpiDerm, OECD TG 439); assay type: cell-based
Description: The in vitro skin irritation test was performed using MatTek Corporation’s Reconstructed Human Epidermal Model EpiDerm™ following the manufacturer’s instructions, which fulfills the criteria set forth in the Organization for Economic Co-operation and Development.
Briefly, we applied either 30 µL of CHB4 or CHB6, PBS, 0.1% DMSO or 30 µL of 1% Triton-X100 (positive control for irritation). All plates were then incubated in a humidified environment for an additional 35 ± 1 min at 37 ± 1 °C, 5 ± 1% CO2, and 90% ± 10% relative humidity (RH). Once the 1 h incubation period was completed for the dosed tissues, all plates were removed from the incubator and placed in a sterile hood. The tissues were then rinsed 15 times with sterile PBS. The blotted tissue inserts were then incubated for 42 ± 2 h after which time the cell viability was determined using the MTT assay as described.

[7] = biological target: Na+, K+-ATPase (purified from pig kidney outer medulla) (Sus scrofa, UniProt P05024); experiment: Na+,K+-ATPase activity assay; assay type: biochemical; conditions: test concentrations similar to the MIC concentrations; micromolar range; prevented by 5 mM GSH
[8] = Candida albicans, 24 h; read-out: MIC, turbidity assay
[9] = Candida albicans, 48 h; read-out: MIC, turbidity assay
[10] = Candida albicans; Abs600nm at 48 h; read-out: Turbidity Assay IC50 C. albicans S1
[11] = Candida albicans, C. albicans S1, 24 h, resazurin
[12] = Candida albicans, C. albicans S1, 48 h, resazurin
[13] = Homo sapiens, KB 3-1, KB-3-1 cells, read-out: MTT Assay IC50 KB-3-1 Cells
[14] = read-out: IC50MA (medium acidification)
[15] = Candida albicans, 24 h, read-out: MIC, turbidity assay
[16] = Candida albicans, 48 h, read-out: MIC, turbidity assay
[17] = Candida albicans, 48 h, read-out: Turbidity Assay IC50 C. albicans S1
[18] = Homo sapiens, KB 3-1, read-out: MTT Assay IC50 KB-3-1 Cells, KB-3-1 cells
[19] = Abs600nm at 48 h; read-out: Turbidity Assay IC50 C. albicans S1
[20] = C. albicans S1, 24 h; for FLU the lowest concentration causing 70% decrease in turbidity; read-out: MIC, turbidity assay
[21] = C. albicans S1, 48 h; for FLU the lowest concentration causing 70% decrease in turbidity; read-out: MIC, turbidity assay
[22] = Candida albicans, 48 h, Abs600nm at 48 h; read-out: Turbidity Assay IC50 C. albicans S1
[23] = KB-3-1 cells, read-out: MTT Assay IC50 KB-3-1 Cells

Sequence of yeast plasma membrane H+-ATPase (Pma1p) (P28877 whole entry): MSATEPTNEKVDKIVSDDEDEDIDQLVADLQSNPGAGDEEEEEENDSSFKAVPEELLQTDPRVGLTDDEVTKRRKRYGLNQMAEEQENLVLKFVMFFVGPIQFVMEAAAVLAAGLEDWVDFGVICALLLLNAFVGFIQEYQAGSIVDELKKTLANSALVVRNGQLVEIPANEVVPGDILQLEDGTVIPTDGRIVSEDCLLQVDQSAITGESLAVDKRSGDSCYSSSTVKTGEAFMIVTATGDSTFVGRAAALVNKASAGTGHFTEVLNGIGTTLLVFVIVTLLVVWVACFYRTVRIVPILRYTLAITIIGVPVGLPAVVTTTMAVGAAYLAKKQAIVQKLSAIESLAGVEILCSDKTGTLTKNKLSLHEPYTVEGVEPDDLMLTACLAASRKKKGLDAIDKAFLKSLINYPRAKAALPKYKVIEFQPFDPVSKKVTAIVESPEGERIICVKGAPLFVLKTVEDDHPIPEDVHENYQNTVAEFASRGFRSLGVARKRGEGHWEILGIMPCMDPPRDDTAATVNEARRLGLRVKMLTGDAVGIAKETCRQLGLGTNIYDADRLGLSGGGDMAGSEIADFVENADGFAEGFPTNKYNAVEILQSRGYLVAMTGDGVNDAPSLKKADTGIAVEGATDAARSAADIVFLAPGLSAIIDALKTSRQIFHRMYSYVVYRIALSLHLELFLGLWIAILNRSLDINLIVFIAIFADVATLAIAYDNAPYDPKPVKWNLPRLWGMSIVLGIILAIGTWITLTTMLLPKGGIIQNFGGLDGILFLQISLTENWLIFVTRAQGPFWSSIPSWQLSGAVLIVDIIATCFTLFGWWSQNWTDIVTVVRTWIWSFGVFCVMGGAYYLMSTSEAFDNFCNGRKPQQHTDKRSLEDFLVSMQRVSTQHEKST

Compound | IC50 ([1]; IC50MA (medium acidification)) [µM] | MIC [2, 8] [µM] | MIC [2, 9] [µM] | IC50 [2, 10] [µM] | MIC [3, 11] [µM] | MIC [3, 12] [µM] | IC50 [4, 13] [µM] | IC50 [1, 14] [µM] | MIC [2, 15] [µM] | MIC [2, 16] [µM] | IC50 [2, 17] [µM] | histopathology of vaginal tissue (H&E) (C. albicans S1) | Log CFU/100 μL (C. albicans S1) [Log CFU/100 μL] | Remaining C. albicans S1 Compared to Control (100%) (C. albicans S1) [%] | MIC ([3]; Candida albicans, 24 h) [µM] | MIC ([3]; Candida albicans, 48 h) [µM] | inhibitory activity towards the Na+, K+-ATPase [7] | IC50 [4, 18] [µM] | MIC [2, 20] [µM] | MIC [2, 21] [µM] | further results
C[C@@H]1[C@@H](n2[se]c3ccccc3c2=O)C[C@H]2C[C@@H]1C2(C)C [CHB1] | > 30 | 12.5 (≈ 4.18 µg/mL) | 12.5 (≈ 4.18 µg/mL) | 7.3 ± 0.1 | 12.5 (≈ 4.18 µg/mL) | 6.3 (≈ 2.11 µg/mL) | 28.1 ± 1.5 |  |  |  |  |  |  |  |  |  |  |  |  |  | 
CC(C)[C@@H]1CC[C@@H](C)C[C@H]1n1[se]c2ccccc2c1=O [CHB6, (−)-N-(1R,2S,5R)-menthyl-1,2-benzizoselenazol-3(2H)-one] |  |  |  |  |  |  |  | > 30 | 3.1 (≈ 1.04 µg/mL) | 3.1 (≈ 1.04 µg/mL) | 1.8 ± 0.1 | slight epithelial distress | 3.655 | 1.064 | 3.1 (≈ 1.04 µg/mL) | 3.1 (≈ 1.04 µg/mL) | possess inhibitory activity | 48.5 ± 5.9 |  |  | IC50 [5]: 11.9 ± 0.2 µM; expression of MPO in vaginal tissue (IHC) (C. albicans S1): decrease; PMN counts of vaginal tissues (C. albicans S1): less PMN counts compared to control and vehicle group; gross markers of the health of the mice (C. albicans S1): without affecting any gross markers of the health of the mice; skin irritation ([6]; test concentrations up to 50 µM): no skin irritation; fungal selectivity (ratio of the IC50 in KB-3-1 cells to the IC50 in S1 cells) [4]: 26.9
O=c1c2ccccc2[se]n1-c1ccccc1 [EB, Ebselen, reference compound] |  | 25 (≈ 6.85 µg/mL) | 25 (≈ 6.85 µg/mL) |  | 25 (≈ 6.85 µg/mL) | 25 (≈ 6.85 µg/mL) | 89.7 |  |  |  |  |  |  |  |  |  | possess inhibitory activity |  | 25.0 (≈ 6.85 µg/mL) | 25.0 (≈ 6.85 µg/mL) | IC50 [2, 19]: 17.1 ± 1.01 µM; IC50 [2, 22]: ~17 µM; MIC ([3]; C. albicans S1, 24 h, resazurin): 25.0 µM (≈ 6.85 µg/mL); MIC ([3]; C. albicans S1, 48 h, resazurin): 25.0 µM (≈ 6.85 µg/mL); IC50 [4, 23]: 89.7 ± 3.42 µM
OC(Cn1cncn1)(Cn1cncn1)c1ccc(F)cc1F [FLU, fluconazole, reference compound] |  | 25 (≈ 7.66 µg/mL) | 25 (≈ 7.66 µg/mL) |  |  |  | > 1000 | > 30 |  |  |  |  |  |  |  |  |  |  | 25.0 (≈ 7.66 µg/mL) | 25.0 (≈ 7.66 µg/mL) | IC50 [2, 19]: 6.01 ± 0.1 µM; IC50 [2, 22]: ~6 µM
C[C@H]1[C@H](n2[se]c3ccccc3c2=O)C[C@@H]2C[C@H]1C2(C)C [CHB2] | > 30 | 12.5 (≈ 4.18 µg/mL) | 12.5 (≈ 4.18 µg/mL) | 7.6 ± 0.1 | 12.5 (≈ 4.18 µg/mL) | 12.5 (≈ 4.18 µg/mL) | 25.5 ± 1.9 |  |  |  |  |  |  |  |  |  |  |  |  |  | 
CC1(C)C2CCC(Cn3[se]c4ccccc4c3=O)C1C2 (single isomer, unassigned; (-)) [CHB3] |  |  |  |  |  |  |  | > 30 | 25 (≈ 8.36 µg/mL) | 25 (≈ 8.36 µg/mL) | 18.1 ± 0.2 |  |  |  | 12.5 (≈ 4.18 µg/mL) | 25 (≈ 8.36 µg/mL) |  | > 60 | 25.0 (≈ 8.36 µg/mL) | 25.0 (≈ 8.36 µg/mL) | IC50 ([4]; read-out: MTT Assay IC50 KB-3-1 Cells, KB-3-1 cells): 65.7 ± 4.4 µM
C[C@@H]1C[C@H]2[C@@H](C[C@H]1n1[se]c3ccccc3c1=O)C2(C)C [CHB5] | > 30 | 25 (≈ 8.36 µg/mL) | 12.5 (≈ 4.18 µg/mL) | 7.5 ± 0.1 | 12.5 (≈ 4.18 µg/mL) | 25 (≈ 8.36 µg/mL) | > 90 |  |  |  |  |  |  |  |  |  |  |  |  |  | IC50 [4, 23]: 94.1 ± 4.7 µM
C[C@H]1CC[C@@H]2[C@H]([C@@H]1n1[se]c3ccccc3c1=O)C2(C)C [CHB4] |  |  |  |  |  |  |  | 13.8 ± 1.1 | 12.5 (≈ 4.18 µg/mL) | 12.5 (≈ 4.18 µg/mL) | 7.7 ± 0.1 | slight epithelial distress | 4.448 | 6.607 | 6.3 (≈ 2.11 µg/mL) | 12.5 (≈ 4.18 µg/mL) | possess inhibitory activity | 17.9 ± 3.1 |  |  | expression of MPO in vaginal tissue (IHC) (C. albicans S1): decrease; PMN counts of vaginal tissues (C. albicans S1): less PMN counts compared to control and vehicle group; gross markers of the health of the mice (C. albicans S1): without affecting any gross markers of the health of the mice; skin irritation ([6]; test concentrations up to 100 µM): no skin irritation; fungal selectivity (ratio of the IC50 in KB-3-1 cells to the IC50 in S1 cells) [4]: 2.3
Clc1ccc(COC(Cn2ccnc2)c2ccc(Cl)cc2Cl)c(Cl)c1 (centres unmarked) [Miconazole (MICO), miconazole, reference compound] |  |  |  |  |  |  |  |  |  |  |  | slight epithelial distress | 4.470 | 6.950 |  |  |  |  |  |  | 
